The structures appear in SMILES notation.

Results on twelve compounds are retold here after US9512120B2, “Microbicidally active imidazopyridine derivatives” (Syngenta Participations AG, priority 2013, dated 2016).

Data set [1] relates to Mycosphaerella arachidis (Cercospora arachidicola). The data set can be described thus: Mycosphaerella arachidis (Cercospora arachidicola) / liquid culture (early leaf spot). It counts as cell-based. The note with it: PDB, 24° C., 4-5 days after application, read-out: control of Mycosphaerella arachidis (inhibition of growth, photometric). The procedure, abridged: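 Conidia suspended in potato dextrose broth and added to test compound from DMSO solution at 200 ppm. Incubated at 24 °C; growth inhibition read photometrically 4-5 days after application.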

In another data set the test system is Pythium ultimum. Description: Pythium ultimum / liquid culture (seedling damping off). The note with it: Globisporangium ultimum, potato dextrose broth, 24° C., 2-3 days after application, read-out: control of Pythium ultimum (inhibition of growth, photometric). It counts as cell-based. The essentials: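 Test compound in DMSO at 200 ppm was incubated with mycelia fragments and oospores in potato dextrose broth at 24 °C. Growth inhibition was read photometrically 2-3 days after application.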

Data set [2] concerns Phaeosphaeria nodorum (Septoria nodorum). Description: Phaeosphaeria nodorum (Septoria nodorum) / wheat / leaf disc preventative (glume blotch). It counts as in vivo. Particulars: Parastagonospora nodorum, foliar, wheat leaf segments cv Kanzler, inoculated 2 days after application, assessed 5-7 days after application, read-out: control of Phaeosphaeria nodorum (percent disease control compared to untreated). The procedure, abridged:
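Wheat leaf segments (cv Kanzler) on agar sprayed with compound at 200 ppm, inoculated with spores 2 days later. Incubated at 20° C., 75% relative humidity, 12/12 h light/dark; percent disease control versus untreated scored 5-7 days after application.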

Data set [3] concerns Glomerella lagenarium (Colletotrichum lagenarium). Description: Glomerella lagenarium (Colletotrichum lagenarium) / liquid culture (anthracnose). The data set is classed as cell-based. Particulars: Colletotrichum orbiculare, PDB, 24° C., 3-4 days after application, read-out: control of Glomerella lagenarium (inhibition of growth, photometric). The essentials: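 Cryopreserved conidia suspended in potato dextrose broth were added to compound in DMSO applied at 200 ppm. Plates incubated at 24° C; growth inhibition read photometrically 3-4 days after application.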

The test system of data set [4] is Puccinia recondita f. sp. Tritici. The data set can be described thus: Puccinia recondita f. sp. tritici / wheat / leaf disc curative (brown rust). The data set is classed as in vivo. The note with it: foliar, wheat leaf segments cv Kanzler, applied 1 day after inoculation, assessed 6-8 days after application, read-out: control of Puccinia recondita f. sp. Tritici (percent disease control compared to untreated). On the procedure:
Puccinia recondita f. Sp. Tritici/Wheat/Leaf Disc Curative (Brown Rust): Wheat leaf segments cv Kanzler were placed on agar in 24-well plates. The leaf segments were inoculated with a spore suspension of the fungus. The plates were stored in darkness at 19° C. and 75% relative humidity. The formulated test compound diluted in water was applied at an application rate of 200 ppm 1 day after inoculation. […] Tritici at 200 ppm when compared to untreated control leaf disks under the same conditions, which show extensive disease development: 2, 13, 16, 23, 30, 61, 75, 89, 103, 173, 174

Data set [5] has as its system Fusarium graminearum, syn. Gibberella zeae. The data set can be described thus: whole plant or invertebrate. Particulars: in Triticum aestivum, 144 h, read-out: control of Gibberella zeae (preventative fungicidal activity). It counts as in vivo.
For a further data set, the system named is Sclerotinia sclerotiorum. Description: Sclerotinia sclerotiorum liquid culture (cottony rot / white mold). The data set is classed as cell-based. Particulars: PDB, 24° C., 3-4 days after application, read-out: control of Sclerotinia sclerotiorum (inhibition of growth, photometric). The essentials:
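Mycelia fragments of Sclerotinia sclerotiorum in potato dextrose broth were added to compound in DMSO. Cultures incubated at 24° C; growth inhibition determined photometrically 3-4 days after application.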

Another data set has as its system Fusarium culmorum. Description: microbe, parasite or virus in culture. The data set is classed as cell-based. The note with it: read-out: control of Fusarium culmorum (inhibition of growth, photometric).
The next data set concerns Plasmopara viticola. Description: Plasmopara viticola / grape / leaf disc preventative. The data set is classed as in vivo. Particulars: foliar, grape vine leaf disks, inoculated 1 day after application, assessed 6-8 days after application, read-out: control of Plasmopara viticola (percent disease control compared to untreated).

As usually defined, the inhibition is the relative decrease from the control value, in per cent. The melting point is the temperature of the solid-liquid transition. As for `CCCn1c(-n2ncnc2N)nc2cnccc21` [Compound 13, 2-(1-propylimidazo[4,5-c]pyridin-2-yl)-1,2,4-triazol-3-amine], the melting point is 210 to 212 °C. Moreover, in data set [1], the inhibition at 20 ppm was no less than 80%. In addition, in the data set with Pythium ultimum, the inhibition at 20 ppm was no less than 80%. The pest or weed control at 200 ppm in data set [2] is no less than 80%. Besides, the inhibition at 20 ppm in data set [3] was no less than 80%. In addition, the pest or weed control at 200 ppm in [4] is no less than 80%. The pest or weed control at 20 ppm in data set [5] is no less than 80%.
The compound `CCc1cncc2nc(-n3ncnc3N)n(CC)c12` [Compound 23, 2-(1,7-diethylimidazo[4,5-c]pyridin-2-yl)-1,2,4-triazol-3-amine] registered a melting point of 176 to 179 °C. For the same compound, in [1], the inhibition at 20 ppm is no less than 80%. The inhibition at 20 ppm in the data set with Pythium ultimum is no less than 80%. The inhibition at 20 ppm with Sclerotinia sclerotiorum was no less than 80%. For the same compound, the pest or weed control at 200 ppm in [2] is no less than 80%. For the same compound, the inhibition at 20 ppm in data set [3] is no less than 80%. Besides, in [4], the pest or weed control at 200 ppm is no less than 80%. In data set [5], the pest or weed control at 20 ppm was no less than 80%. Besides, the inhibition at 20 ppm in the data set on Fusarium culmorum is no less than 80%.
Regarding `CC=Cc1cncc2nc(-n3ncnc3N)n(CC)c12` [Compound 67, 2-(1-ethyl-7-prop-1-enylimidazo[4,5-c]pyridin-2-yl)-1,2,4-triazol-3-amine], the inhibition at 20 ppm (in data set [1]; in the data set with Pythium ultimum; with Sclerotinia sclerotiorum; in data set [3]) was no less than 80% each time. Besides, in data set [2], the pest or weed control at 200 ppm is no less than 80%.
In turn, `CCn1c(-n2ncnc2N)nc2cncc(C(C)=O)c21` [Compound 75, 1-[2-(5-amino-1,2,4-triazol-1-yl)-1-ethylimidazo[4,5-c]pyridin-7-yl]ethanone] returned a melting point of 242 to 244 °C. Also, the inhibition at 20 ppm in [1] was no less than 80%. For the same compound, the inhibition at 20 ppm in the data set with Sclerotinia sclerotiorum is no less than 80%. Besides, the pest or weed control at 200 ppm in data set [2] was no less than 80%. Further, the pest or weed control at 200 ppm in [4] is no less than 80%.
As to `CCn1c(-n2ncnc2N)nc2cncc(-c3ccc(F)c(F)c3F)c21` [Compound 86, 2-[1-ethyl-7-(2,3,4-trifluorophenyl)imidazo[4,5-c]pyridin-2-yl]-1,2,4-triazol-3-amine], the inhibition at 20 ppm (in [1]; in the data set with Pythium ultimum; in the data set with Sclerotinia sclerotiorum; in data set [3]; in the data set on Fusarium culmorum) was no less than 80% throughout. Besides, the pest or weed control at 200 ppm in data set [2] was no less than 80%.
Turning to `CCn1c(-n2ncnc2N)nc2cncc(-c3cccnc3F)c21` [Compound 89, 2-[1-ethyl-7-(2-fluoropyridin-3-yl)imidazo[4,5-c]pyridin-2-yl]-1,2,4-triazol-3-amine], the inhibition at 20 ppm (in the data set on Pythium ultimum; in the data set on Sclerotinia sclerotiorum; in [3]; with Fusarium culmorum) was no less than 80% in each case. Further, the pest or weed control at 200 ppm in data set [2] and in data set [4] was no less than 80% each time. Also, the pest or weed control at 20 ppm in [5] was no less than 80%.
As for `CCn1c(-n2ncnc2N)nc2cncc(-c3cccc(Cl)c3F)c21` [Compound 90, 2-[7-(3-chloro-2-fluorophenyl)-1-ethylimidazo[4,5-c]pyridin-2-yl]-1,2,4-triazol-3-amine], the inhibition at 20 ppm (in [1]; with Sclerotinia sclerotiorum; in data set [3]; with Fusarium culmorum) was no less than 80% throughout. In addition, the pest or weed control at 200 ppm in data set [2] was no less than 80%. Also, in data set [5], the pest or weed control at 20 ppm was no less than 80%.
Take `CCn1c(-n2ncnc2N)nc2cncc(-c3cccc(OC)c3F)c21` [Compound 93, 2-[1-ethyl-7-(2-fluoro-3-methoxyphenyl)imidazo[4,5-c]pyridin-2-yl]-1,2,4-triazol-3-amine]: the inhibition at 20 ppm (in data set [1]; with Sclerotinia sclerotiorum; in data set [3]; with Fusarium culmorum) was no less than 80% in each case. Also, the pest or weed control at 200 ppm in data set [2] was no less than 80%. Besides, in [5], the pest or weed control at 20 ppm is no less than 80%.
Regarding `CCn1c(-n2ncnc2N)nc2cncc(-c3cccc(F)c3F)c21` [Compound 102, 2-[7-(2,3-difluorophenyl)-1-ethylimidazo[4,5-c]pyridin-2-yl]-1,2,4-triazol-3-amine], the inhibition at 20 ppm (in data set [1]; with Pythium ultimum; in the data set with Sclerotinia sclerotiorum; in [3]; with Fusarium culmorum) was no less than 80% each time. The pest or weed control at 200 ppm in data set [2] was no less than 80%. Besides, the pest or weed control at 20 ppm in [5] was no less than 80%.
Take `CCn1c(-n2ncnc2N)nc2cncc(/C(C)=N\OC/C=C(\C)Cl)c21` [Compound 153, 2-[7-[(Z)-N-[(E)-3-chlorobut-2-enoxy]-C-methyl-carbonimidoyl]-1-ethyl-imidazo[4,5-c]pyridin-2-yl]-1,2,4-triazol-3-amine]: the pest or weed control at 200 ppm (in the data set with Plasmopara viticola; in data set [2]) was no less than 80% throughout. In addition, the inhibition at 20 ppm (in data set [1]; in the data set with Sclerotinia sclerotiorum; in data set [3]; with Fusarium culmorum) was no less than 80% throughout.
Take `CCCn1c(-n2ncnc2N)nc2cncc(C)c21` [Compound 173, 2-(7-methyl-1-propyl-imidazo[4,5-c]pyridin-2-yl)-1,2,4-triazol-3-amine]: the inhibition at 20 ppm (in data set [1]; in the data set on Pythium ultimum; in data set [3]) was no less than 80% throughout. The pest or weed control at 200 ppm in data set [2] and in data set [4] was no less than 80% throughout.
Turning to `CCCn1c(-n2ncnc2N)nc2cncc(CC)c21` [Compound 174, 2-(7-ethyl-1-propyl-imidazo[4,5-c]pyridin-2-yl)-1,2,4-triazol-3-amine], the pest or weed control at 200 ppm (with Plasmopara viticola; in data set [2]; in [4]) was no less than 80% each time. The inhibition at 20 ppm (in the data set with Pythium ultimum; in [3]) was no less than 80% each time.
